Laboratory results: patent publication US20250361230A1, “LATS Inhibitors and Uses Thereof” (The USA, as Represented by the Secretary, Dept. of Heath …, priority 2022, published 2025)
Like-named read-outs stand apart in the source and are kept apart here.

Experiments:
Format in all cases: biochemical
[1] = biological target: T1, LATS2 (Homo sapiens, UniProt Q9NRM7); experiment: RBC HotSpot kinase assay (33P-ATP, P81 filter-binding), LATS2; details: read-out: LATS2 IC50
T1 sequence (Q9NRM7 1-1088): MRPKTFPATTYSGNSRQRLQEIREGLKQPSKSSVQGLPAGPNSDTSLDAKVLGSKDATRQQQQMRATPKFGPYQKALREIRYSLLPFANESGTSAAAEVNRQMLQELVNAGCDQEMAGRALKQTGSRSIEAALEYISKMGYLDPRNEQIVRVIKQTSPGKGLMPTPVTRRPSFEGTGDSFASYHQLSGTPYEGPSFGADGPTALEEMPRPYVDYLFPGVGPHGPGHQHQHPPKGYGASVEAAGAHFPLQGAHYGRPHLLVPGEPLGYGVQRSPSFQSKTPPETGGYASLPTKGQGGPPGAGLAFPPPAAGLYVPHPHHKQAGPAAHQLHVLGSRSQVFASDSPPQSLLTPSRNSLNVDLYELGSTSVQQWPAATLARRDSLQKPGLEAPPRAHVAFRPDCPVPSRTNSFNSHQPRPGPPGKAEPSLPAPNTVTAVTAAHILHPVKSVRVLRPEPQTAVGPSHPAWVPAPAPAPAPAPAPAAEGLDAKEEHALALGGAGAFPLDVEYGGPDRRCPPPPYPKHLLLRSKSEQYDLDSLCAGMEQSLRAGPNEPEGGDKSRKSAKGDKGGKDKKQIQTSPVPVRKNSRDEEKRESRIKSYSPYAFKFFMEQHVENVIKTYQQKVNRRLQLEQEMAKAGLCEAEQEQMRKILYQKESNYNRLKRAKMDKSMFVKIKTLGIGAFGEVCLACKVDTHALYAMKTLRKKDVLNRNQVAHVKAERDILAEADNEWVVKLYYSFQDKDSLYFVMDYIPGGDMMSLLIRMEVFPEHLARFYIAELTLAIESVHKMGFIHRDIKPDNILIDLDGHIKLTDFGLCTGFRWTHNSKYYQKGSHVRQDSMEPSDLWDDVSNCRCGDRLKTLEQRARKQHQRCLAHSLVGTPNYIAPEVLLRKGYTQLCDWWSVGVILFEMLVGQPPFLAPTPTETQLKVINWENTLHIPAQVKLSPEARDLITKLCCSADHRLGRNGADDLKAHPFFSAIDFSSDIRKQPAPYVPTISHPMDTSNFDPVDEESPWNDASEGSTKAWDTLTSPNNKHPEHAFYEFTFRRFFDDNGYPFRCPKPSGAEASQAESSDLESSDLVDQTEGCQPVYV
Outline: (§1)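 Kinase in Hepes pH 7.5 buffer with Mg2+, EGTA, Brij35, BSA, vanadate, DTT and 1% DMSO, plus required cofactors and substrate, was preincubated 20 min at room temperature with compound. Reaction was started with 33P-ATP and run 2 h, then detected by P81 filter binding. IC50 (nM) came from 10-point singlet curves.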

[2] = biological target: AKT (Homo sapiens, UniProt P31749); experiment: RBC HotSpot kinase assay (33P-ATP, P81 filter-binding), AKT; details: read-out: AKT IC50
AKT, sequence (P31749 whole entry): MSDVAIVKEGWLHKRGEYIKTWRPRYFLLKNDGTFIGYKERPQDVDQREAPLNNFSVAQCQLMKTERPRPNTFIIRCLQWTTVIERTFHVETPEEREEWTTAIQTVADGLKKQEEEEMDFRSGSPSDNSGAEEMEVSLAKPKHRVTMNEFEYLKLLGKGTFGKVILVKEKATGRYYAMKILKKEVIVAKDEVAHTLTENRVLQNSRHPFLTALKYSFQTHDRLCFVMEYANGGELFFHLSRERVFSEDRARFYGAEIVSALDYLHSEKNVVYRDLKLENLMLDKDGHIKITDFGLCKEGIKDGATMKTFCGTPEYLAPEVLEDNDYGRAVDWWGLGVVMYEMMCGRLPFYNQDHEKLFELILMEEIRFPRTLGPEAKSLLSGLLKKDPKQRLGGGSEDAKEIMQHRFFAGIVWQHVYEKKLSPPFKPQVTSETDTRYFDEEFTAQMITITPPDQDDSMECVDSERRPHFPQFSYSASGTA
Outline: as §1

[3] = biological target: T2, LATS1 (Homo sapiens, UniProt O95835); experiment: RBC HotSpot kinase assay (33P-ATP, P81 filter-binding), LATS1; details: read-out: LATS1 IC50
T2 sequence (O95835 1-1130): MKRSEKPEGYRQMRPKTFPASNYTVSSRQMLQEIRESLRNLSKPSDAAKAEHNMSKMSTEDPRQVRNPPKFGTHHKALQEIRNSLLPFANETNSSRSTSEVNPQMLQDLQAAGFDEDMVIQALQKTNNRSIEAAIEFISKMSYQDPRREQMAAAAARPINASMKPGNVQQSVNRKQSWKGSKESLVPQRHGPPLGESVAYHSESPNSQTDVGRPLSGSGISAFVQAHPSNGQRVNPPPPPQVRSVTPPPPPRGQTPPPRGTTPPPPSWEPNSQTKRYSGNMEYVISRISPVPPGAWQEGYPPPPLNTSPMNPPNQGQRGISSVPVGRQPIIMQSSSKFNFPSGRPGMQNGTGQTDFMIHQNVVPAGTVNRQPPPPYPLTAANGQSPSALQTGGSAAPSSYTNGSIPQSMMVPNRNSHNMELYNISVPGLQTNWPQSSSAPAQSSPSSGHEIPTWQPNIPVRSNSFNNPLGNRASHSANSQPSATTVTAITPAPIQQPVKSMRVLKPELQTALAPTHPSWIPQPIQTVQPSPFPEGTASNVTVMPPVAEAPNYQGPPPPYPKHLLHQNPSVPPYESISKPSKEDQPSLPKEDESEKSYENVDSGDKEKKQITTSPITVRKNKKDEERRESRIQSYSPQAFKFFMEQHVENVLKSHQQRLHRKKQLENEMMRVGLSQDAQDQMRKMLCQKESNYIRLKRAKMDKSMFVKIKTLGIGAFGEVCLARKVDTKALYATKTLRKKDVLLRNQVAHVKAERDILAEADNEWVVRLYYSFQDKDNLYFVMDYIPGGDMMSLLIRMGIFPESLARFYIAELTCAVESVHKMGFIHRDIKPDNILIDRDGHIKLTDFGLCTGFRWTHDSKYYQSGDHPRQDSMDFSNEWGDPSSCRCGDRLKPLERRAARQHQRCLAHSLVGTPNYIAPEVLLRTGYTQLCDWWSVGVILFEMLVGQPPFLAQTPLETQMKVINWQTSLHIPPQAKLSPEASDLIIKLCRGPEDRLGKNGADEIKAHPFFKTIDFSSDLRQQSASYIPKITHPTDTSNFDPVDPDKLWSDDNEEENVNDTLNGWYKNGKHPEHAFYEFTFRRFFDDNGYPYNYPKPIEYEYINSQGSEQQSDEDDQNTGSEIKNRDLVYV
Outline: as §1

[4] = Table 32, biochemical kinase assay

SMILES | IC50 [1, 4] | IC50 [2, 4] | IC50 [3, 4] | IC50 ([1]; biochemical kinase inhibition) | IC50 ([2]; biochemical kinase inhibition) | IC50 ([3]; biochemical kinase inhibition)
O=C(CP(=O)(O)O)NCC(O)(c1ccc(Cl)cc1)c1ccc(-c2ccnc3[nH]ccc23)cc1 (stereo not drawn) [Compound 1022, (2-((2-(4-(1H-pyrrolo[2,3-b]pyridin-4-yl)phenyl)-2-(4-chlorophenyl)-2-hydroxyethyl)amino)-2-oxoethyl) phosphonic acid] | 12 nM | 3.1 nM | 9.6 nM | – | – | –
O=C(NCC(O)(c1ccc(Cl)cc1)c1ccc(-c2ccnc3[nH]ccc23)cc1)[C@@H]1CCCN1 (stereo partly drawn) [Compound 1023, (2S)—N-(2-(4-(1H-pyrrolo[2,3-b]pyridin-4-yl)phenyl)-2-(4-chlorophenyl)-2-hydroxyethyl)pyrrolidine-2-carboxamide] | 4.6 nM | 9.2 nM | 3.4 nM | – | – | –
O=C(NCC(O)(c1ccc(Cl)cc1)c1ccc(-c2ccnc3[nH]ccc23)cc1)[C@H]1CCCN1 (stereo partly drawn) [Compound 1024, (2R)-N-(2-(4-(1H-pyrrolo[2,3-b]pyridin-4-yl)phenyl)-2-(4-chlorophenyl)-2-hydroxyethyl)pyrrolidine-2-carboxamide] | 2.4 nM | 5.6 nM | 3.7 nM | – | – | –
NCC(=O)NCC(O)(c1ccc(Cl)cc1)c1ccc(-c2ccnc3[nH]cc(F)c23)cc1 (stereo not drawn) [Compound 1029, 2-amino-N-(2-(4-chlorophenyl)-2-(4-(3-fluoro-1H-pyrrolo[2,3-b]pyridin-4-yl)phenyl)-2-hydroxyethyl)acetamide] | 1.3 nM | 0.7 nM | 2.6 nM | – | – | –
CN(CC(O)(c1ccc(Cl)cc1)c1ccc(-c2ccnc3[nH]ccc23)cc1)C(=O)CN (stereo not drawn) [Compound 1030, N-(2-(4-(1H-pyrrolo[2,3-b]pyridin-4-yl)phenyl)-2-(4-chlorophenyl)-2-hydroxyethyl)-2-amino-N-methylacetamide] | 5.1 nM | 1.1 nM | 4.4 nM | – | – | –

Results, then the molecule that gave them:

IC50 [1, 4] | IC50 [2, 4] | IC50 [3, 4] | IC50 ([1]; biochemical kinase inhibition) | IC50 ([2]; biochemical kinase inhibition) | IC50 ([3]; biochemical kinase inhibition) | SMILES
2.4 nM | 1.4 nM | 3 nM | – | – | – | NCC(=O)NCC(O)(c1ccc(Cl)cc1)c1ccc(-c2ccnc3[nH]ccc23)cc1 (stereo not drawn) [Compound 1020, N-(2-(4-(1H-pyrrolo[2,3-b]pyridin-4-yl)phenyl)-2-(4-chlorophenyl)-2-hydroxyethyl)-2-aminoacetamide]
4.5 nM | 3.1 nM | 4.1 nM | – | – | – | NCC(=O)NCC(=O)NCC(O)(c1ccc(Cl)cc1)c1ccc(-c2ccnc3[nH]ccc23)cc1 (stereo not drawn) [Compound 1025, N-(2-(4-(1H-pyrrolo[2,3-b]pyridin-4-yl)phenyl)-2-(4-chlorophenyl)-2-hydroxyethyl)-2-(2-aminoacetamido)acetamide]
2.3 nM | 1.2 nM | 3.8 nM | – | – | – | C[C@H](N)C(=O)NCC(O)(c1ccc(Cl)cc1)c1ccc(-c2ccnc3[nH]ccc23)cc1 (stereo partly drawn) [Compound 1026, (2S)-N-(2-(4-(1H-pyrrolo[2,3-b]pyridin-4-yl)phenyl)-2-(4-chlorophenyl)-2-hydroxyethyl)-2-aminopropanamide]
3 nM | 1.3 nM | 4.1 nM | – | – | – | CNCC(=O)NCC(O)(c1ccc(Cl)cc1)c1ccc(-c2ccnc3[nH]ccc23)cc1 (stereo not drawn) [Compound 1027, N-(2-(4-(1H-pyrrolo[2,3-b]pyridin-4-yl)phenyl)-2-(4-chlorophenyl)-2-hydroxyethyl)-2-(methylamino)acetamide]
2.4 nM | 1.9 nM | 1.9 nM | – | – | – | CC(C)(N)C(=O)NCC(O)(c1ccc(Cl)cc1)c1ccc(-c2ccnc3[nH]ccc23)cc1 (stereo not drawn) [Compound 1028, N-(2-(4-(1H-pyrrolo[2,3-b]pyridin-4-yl)phenyl)-2-(4-chlorophenyl)-2-hydroxyethyl)-2-amino-2-methylpropanamide]
– | – | – | 3.3 nM | 278 nM | 3.3 nM | N#Cc1c[nH]c2nccc(-c3ccc(C4(O)CCNCC4)cc3)c12 [Compound 2001, 4-(4-(4-hydroxypiperidin-4-yl)phenyl)-1H-pyrrolo[2,3-b]pyridine-3-carbonitrile]
